Experimental data taken from paper PMC12375786, “Revolutionizing cancer treatment with Halomonas Aquamarina L-Glutaminase: insights from in vitro and computational studies” (Scientific Reports, 2025).

System: T1, L-GLS (L-glutaminase) of Halomonas aquamarina HBIM1
T1 construct: gene glsA
Conditions: unit printed as mM^-1 (reciprocal, probably mM meant); pH and temperature of the kinetic run not given

Km: 0.198 mM⁻¹
SMILES: NC(=O)CC[C@H](N)C(=O)O [L-glutamine]
